In patent publication US4816448A, “Thermal isomer of difficidin and thermal isomer of oxydifficidin antibacterials” (Merck & Co., Inc., priority 1987, dated 1989):

What was measured:
P. aeruginosa = assay: MIC, standard in vitro assay (Table I); format: cell-based, Pseudomonas aeruginosa; conditions: Ps. aeruginosa; in most cases
From the text: (§1) Using standard in vitro assay techniques, minimal inhibitory concentrations (MIC) have been determined for the thermal isomer of difficidin and the thermal isomer of oxydifficidin against a number of bacteria.

Proteus = assay: Antibacterial activity, relative potency; format: cell-based; conditions: in most cases
From the text: as §1

aerobic microorganisms = assay: Antibacterial activity against aerobic microorganisms; format: cell-based; conditions: aerobic microorganisms such as Pseudomonas aeruginosa and Staphylococcus aureus
From the text: as §1

Serratia marcescens = assay: MIC, standard in vitro assay (Table I); format: cell-based; conditions: in most cases
From the text: as §1

Salmonella typhimurium = assay: MIC, standard in vitro assay (Table I); format: cell-based; conditions: in most cases
From the text: as §1

S. aureus = assay: MIC, standard in vitro assay (Table I); format: cell-based, Staphylococcus aureus; conditions: in most cases
From the text: as §1

anaerobic bacteria = assay: Antibacterial activity against anaerobic bacteria; format: cell-based
[1] = Isomerization of difficidin at 60° C., HPLC (Example IV); format: physicochemical; conditions: tetrahydrofuran
Protocol: Difficidin is stored as the potassium salt at pH7 in aqueous methanol solution at -80° C. A 0.67 ml aliquot containing 400 mcg of difficidin was evaporated to an oil and taken up in 0.2 ml of tetrahydrofuran. The sample was heated at 60° C. for 3 days.

[2] = Thermal isomerization of difficidin and oxydifficidin, equilibrium; format: physicochemical; conditions: for time to reach equilibrium with its thermal isomer / converted to thermal isomer at equilibrium: 60° C.; for converted to thermal isomer at equilibrium: suitable solvent such as water, alcohol or ethyl acetate
Protocol: Alternatively, the thermal isomers of the subject invention can be prepared by converting difficidin and oxydifficidin to the thermal isomer of difficidin and thermal isomer of oxydifficidin, respectively. Difficidin and oxydifficidin can be prepared and purified as described in U.S. Pat. No. 4,545,991. The thermal isomers can be prepared by thermally heating (to about 60° C.) the difficidin and oxydifficidin in a suitable solvent system such as water, alcohol or ethyl acetate. At 60° C., it takes about 24 hours for difficidin and oxydifficidin to reach equilibrium with its thermal isomer. At equilibrium, about 25% of the difficidin has converted to the thermal isomer and about 66% of the oxydifficidin has converted to its thermal isomer. […] The thermal isomer can then be separated from the equilibrium mixture by standard chromatographic techniques.

[3] = Isomerization of oxydifficidin at 60° C., HPLC (Example V); format: physicochemical; conditions: under argon, tetrahydrofuran
Protocol: Pure oxydifficidin was stored as the potassium salt, pH7, in aqueous methanol solution at -80° C. A 28 ml aliquot, containing 95 mg of antibiotic, was treated with 2 mg. of 2,6-di-t-butyl-phenol and evaporated to 3-4 ml. The concentrate was diluted with tetrahydrofuran to a final volume of 44 ml. The solution was heated under argon at 60° C.

Row | Compound | effectiveness relative to thermal isomer of oxydifficidin (P. aeruginosa) | effectiveness relative to thermal isomer of oxydifficidin (Proteus) | potency against aerobic microorganisms vs thermal isomer of oxydifficidin (aerobic microorganisms) | effectiveness relative to thermal isomer of oxydifficidin (Serratia marcescens) | effectiveness relative to thermal isomer of oxydifficidin (Salmonella typhimurium) | effectiveness relative to thermal isomer of oxydifficidin (S. aureus) | activity against anaerobic bacteria (anaerobic bacteria) | Composition ([1]; 0 days) [%] | Composition ([1]; 3 days) [%] | time to reach equilibrium with its thermal isomer [2] | converted to thermal isomer at equilibrium [2] | isomerization at room temperature [2] | Composition ([3]; 17 hrs., HPLC) [%] | Composition ([3]; 24 hrs., HPLC) [%] | Composition ([3]; 41 hrs., HPLC) [%] | Composition ([3]; time 0, HPLC) [%]
1 | C=C/C=C(\C)CCC1C/C=C\C=C(\C)C(OP(=O)(O)O)CC/C=C/C=C\C=C/CCC(C)C(=C)CC(=O)O1 (stereo not drawn) [thermal isomer of difficidin, (Z,Z,E,Z,Z,)-16-dihydroxyphosphinoxy-5,7-dimethyl-4-methylene-22-((E)-3-methyl-3,5-hexadienyl)oxacyclo-docosa-8,10,12,17,19-pentaen-2-one] | four times more effective | four times more effective | more potent than the thermal isomer of oxydifficidin | four times more effective | four times more effective | four times more effective | active against a wide spectrum of anaerobic bacteria | 2 | 24 |  |  |  |  |  |  | 
2 | difficidin |  |  |  |  |  |  |  | 98 | 76 | about 24 hours | about 25% | some isomerization takes place |  |  |  | 
3 | oxydifficidin [reference compound] |  |  |  |  |  |  |  |  |  | about 24 hours | about 66% | some isomerization takes place | 39 | 36 | 34 | 98
